The values that follow come from patent EP4667465A1, “SALT OF BENZO-NITROGEN HETEROAROMATIC RING DERIVATIVE, CRYSTALLINE FORM, AND PHARMACEUTICAL USE THEREOF” (Haisco Pharmaceutical Group Co., Ltd., priority 2023, dated 2024).

Molecules are shown by their SMILES.

Data set [1] can be described thus: Pharmacokinetic test in rats. The format is in vivo, SD rats.
Method: Experimental objective: in this experiment, a single dose of the test substance was administered to SD rats intravenously and intragastrically, and the concentration of the test substance in plasma of the rats was measured to evaluate the pharmacokinetic characteristics of the test substance in the rats. Experimental animals: male SD rats, 200-250 g, 6-8 weeks old, 6 rats/compound, purchased from Chengdu Dossy Experimental Animals Co., Ltd. Experimental method: on the day of the experiment, 6 SD rats were randomly grouped according to their body weights. […] Sampling: before and after the administration, 0.15 mL of blood was taken from the orbits under isoflurane anesthesia and placed in an EDTAK2 centrifuge tube. Centrifugation was carried out at 5000 rpm at 4°C for 10 min, and the plasma was collected. The plasma collection time points for IV&PO groups were 0, 5 min, 15 min, 30 min, 1 h, 2 h, 4 h, 6 h, 8 h, and 24 h. Before analysis and detection, all samples were stored at -60°C. The samples were analyzed quantitatively by LC-MS/MS.
Data set [2] can be described thus: in vitro. The following applies: human, Caco-2, pH 7.4.
Method: (§1) In the experiment, a monolayer of Caco-2 cells was used, and incubated in triplicate in a 96-well Transwell plate. A transport buffer solution (HBSS, 10 mM HEPES, pH 7.4 ± 0.05) containing the compound of the present invention (2 µM) or the control compound digoxin (10 µM), nadolol (2 µM) or metoprolol (2 µM) was added to the administration end hole on the apical side or basal side. A DMSO-containing transport buffer solution was added to the corresponding receiving end hole. After incubation for 2 hours at 37°C ± 1°C, the cell plate was removed, and an appropriate amount of samples was taken from both the apical side and basal side and transferred to a new 96-well plate. Subsequently, acetonitrile containing an internal standard was added to precipitate the protein. The samples were analyzed using LC MS/MS, and the concentrations of the compound of the present invention and the control compound were determined. Concentration data were used to calculate apparent permeability coefficients for transport from the apical side to the basal side, and from the basal side to the apical side of the cell monolayer, and thus to calculate the efflux ratio. The integrity of the cell monolayer after 2 hours of incubation was evaluated by leakage of Lucifer Yellow.
A short description of data set [3]: Pharmacokinetic test in monkeys. The data set is classed as in vivo, cynomolgus monkeys. Conditions: compared with the trifluoroacetate of LNP023, in words.
Method: Experimental objective: in this experiment, a single dose of test substance was administered to cynomolgus monkeys intravenously and intragastrically, and the concentration of the test substance in plasma of the monkeys was measured to evaluate the pharmacokinetic characteristics of the test substance in the monkeys.
Experimental animals: male cynomolgus monkeys, 3-5 kg, 3-6 years old, 6 monkeys/compound, purchased from Suzhou Xishan Biotechnology Co., Ltd.
Experimental method: on the day of the experiment, 6 monkeys were randomly grouped according to their body weights. The cynomolgus monkeys were fasted with water available for 14-18 h one day before the administration, and were fed 4 h after the administration.
Sampling: before and after the administration, 1.0 mL of blood was taken from the limb veins and placed in an EDTAK2 centrifuge tube. Centrifugation was carried out at 5000 rpm at 4°C for 10 min, and the plasma was collected.
The plasma collection time points for IV&PO groups were 0, 5 min, 15 min, 30 min, 1 h, 2 h, 4 h, 6 h, 8 h, 10 h, 12 h, and 24 h.
Before analysis and detection, all samples were stored at -60°C. The samples were analyzed quantitatively by LC-MS/MS.
Data set [4] concerns Caco-2 cells. Conditions: Caco2, compared with the trifluoroacetate of LNP023; in words.
Method: as §1
In data set [5] the target is complement factor B (Homo sapiens, UniProt P00751). Conditions: in words; disclosed in PCT/CN 2022/113216; cited from earlier work.
The test system of data set [6] is C3a level. The following applies: in words; disclosed in PCT/CN 2022/113216; cited from earlier work.
The nature of data set [7]: Stability of the crystalline form (purity under accelerated, intermediate and long-term storage). The data set is classed as physicochemical.
The nature of data set [8]: Hygroscopicity (sorption isotherm curve). The format is physicochemical. The following applies: at 80% RH.
From the text: According to the description of the hygroscopicity characteristics and the definition of hygroscopic weight gain in the Chinese Pharmacopoeia 2020 Edition, Volume IV, General Chapter 9103: Guidelines for Hygroscopicity Trials for Pharmaceuticals, • deliquescence: absorbing enough moisture to form a liquid; • extremely hygroscopic: a hygroscopic weight gain of not less than 15%; • hygroscopic: a hygroscopic weight gain of less than 15% but no less than 2%; • slightly hygroscopic: a hygroscopic weight gain of less than 2% but no less than 0.2%; and • non-hygroscopic or practically non-hygroscopic: a hygroscopic weight gain of less than 0.2%.
[9] abbreviates: in rats, compared with LNP023, in words.
[10] abbreviates: male, rat, po, SD rats, plasma, i.g. (10 mg/kg).

complement factor B, sequence (P00751 26-764): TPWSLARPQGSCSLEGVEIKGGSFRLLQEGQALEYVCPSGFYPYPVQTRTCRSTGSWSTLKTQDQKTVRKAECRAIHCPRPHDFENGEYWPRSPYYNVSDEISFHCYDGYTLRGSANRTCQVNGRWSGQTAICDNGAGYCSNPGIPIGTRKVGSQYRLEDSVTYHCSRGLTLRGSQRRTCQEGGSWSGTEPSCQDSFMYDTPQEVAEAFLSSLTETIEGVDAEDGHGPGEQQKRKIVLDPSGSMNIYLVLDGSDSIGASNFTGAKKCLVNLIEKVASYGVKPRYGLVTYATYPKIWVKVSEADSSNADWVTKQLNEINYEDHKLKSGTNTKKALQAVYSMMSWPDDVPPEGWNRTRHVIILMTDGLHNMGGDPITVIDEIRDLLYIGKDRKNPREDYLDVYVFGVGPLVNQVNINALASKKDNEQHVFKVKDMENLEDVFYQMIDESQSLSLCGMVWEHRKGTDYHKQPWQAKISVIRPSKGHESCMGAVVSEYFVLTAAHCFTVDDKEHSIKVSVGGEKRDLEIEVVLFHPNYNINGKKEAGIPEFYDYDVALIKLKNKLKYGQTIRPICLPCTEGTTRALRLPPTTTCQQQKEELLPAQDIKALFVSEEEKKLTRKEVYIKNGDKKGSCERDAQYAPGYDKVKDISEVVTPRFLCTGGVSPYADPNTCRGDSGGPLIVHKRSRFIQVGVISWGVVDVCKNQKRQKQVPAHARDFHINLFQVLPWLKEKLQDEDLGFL

`[2H]C([2H])([2H])Oc1cc(C)c2[nH]ccc2c1CN1CC[C@@H](C2CC2)C[C@H]1c1ccc(C(=O)O)cc1` [Trifluoroacetate of compound 1, 4-((2S,4R)-4-cyclopropyl-1-((5-(methoxy-d3)-7-methyl-1H-indol-4-yl)methyl)piperidin-2-yl)benzoic acid]: in data set [1] (setting [9]), the maximum plasma concentration entry is listed as “higher” and the oral bioavailability entry is “higher”. Further, in data set [2], the Papp A→B at 2 h, 2 µM was 1.77 ×10⁻⁶ cm/s and the apparent permeability from basolateral to apical (Papp B→A) at 2 h, 2 µM was determined as 19.4 ×10⁻⁶ cm/s. Also, in data set [3], the bioavailability entry is listed as “higher” and the oral exposure entry is given as “higher”. The permeability entry in data set [4] is reported as “better”.
In data set [1] (male, rat, plasma, po, SD rats, i.g. (10 mg/kg)), `CCO[C@H]1CCN(Cc2c(OC)cc(C)c3[nH]ccc23)[C@H](c2ccc(C(=O)O)cc2)C1` [LNP023] gave a bioavailability of 49%. In data set [1] (setting [10]), the Cmax was 867 ng/mL, the Tmax was 3.5 h and the half-life was 3.39 h. Besides, the AUC(0-t) in data set [1] (male, rat, po, SD rats, plasma, i.g. (10 mg/kg), read-out: AUC0-24h) was 9870 ng·h/mL.
Turning to `[2H]C([2H])([2H])Oc1cc(C)c2[nH]ccc2c1CN1CC[C@@H](C2CC2)C[C@H]1c1ccc(C(=O)O)cc1` [compound 1, 4-((2S,4R)-4-cyclopropyl-1-((5-(methoxy-d3)-7-methyl-1H-indol-4-yl)methyl)piperidin-2-yl)benzoic acid], in data set [5], the “inhibitory activity against complement factor B” value is on record as “good”. For the same molecule, in data set [6], the “inhibition rate of C3a level in vivo” value is reported as “good”.
Regarding `[2H]C([2H])([2H])Oc1cc(C)c2[nH]ccc2c1CN1CC[C@@H](C2CC2)C[C@H]1c1ccc(C(=O)O)cc1` [4-((2S,4R)-4-cyclopropyl-1-((5-(methoxy-d3)-7-methyl-1H-indol-4-yl)methyl)piperidin-2-yl)benzoic acid], the Purity in data set [7] (0 day) amounted to 97.80%; in data set [7] (Accelerated: 40°C ± 2°C, 75% ± 5% RH, 1 month), 97.70%; in data set [7] (Accelerated: 40°C ± 2°C, 75% ± 5% RH, 2 months) it was 97.70%; in data set [7] (Accelerated: 40°C ± 2°C, 75% ± 5% RH, 3 months), 97.90%; in data set [7] (Accelerated: 40°C ± 2°C, 75% ± 5% RH, 6 months), 97.80%; in data set [7] (Intermediate: 25°C ± 2°C, 60% ± 5% RH, 3 months), 98.00%. For the same molecule, the Purity worked out at 97.80% in data set [7] (Intermediate: 25°C ± 2°C, 60% ± 5% RH, 6 months); 97.90% in data set [7] (Long-term: 2°C - 8°C, 3 months); 97.70% in data set [7] (Long-term: 2°C - 8°C, 6 months). Further, the stability result in data set [7] (under accelerated, intermediate and long-term conditions, conclusion in words) was “good stability”. In data set [8], the hygroscopic weight gain entry was “about 1.15%”.
